Assay results reported in US6096909A, “Taxoid anti-tumor agents and pharmaceutical compositions thereof” (The Research Foundation of State University of New York, priority 1997, dated 2000).
Read-outs that look alike come from different tables or passages of the source.

Legend:
[1] = test system: A121 human ovarian, A549 human non-small cell lung, HT-29 human colon and MCF7 human breast cancer cells; experiment: Cytotoxicity against human cancer cell panel, stated jointly for the four lines
MCF7 (mammary carcinoma) = experiment: Tumor cell growth inhibition (SRB), 72 h; type: cell-based; details: Homo sapiens, read-out: concentration of compound which inhibit 50% (IC50) of the growth of human tumor cell line
[2] = relative to paclitaxel; cited from earlier work
[3] = relative to paclitaxel; cited from earlier work; remark: listed apart in the source
[4] = recent report on clinical trials; cited from earlier work
[5] = test system: A549 (non-small cell lung carcinoma); experiment: Tumor cell growth inhibition (SRB), 72 h; type: cell-based; details: Homo sapiens, read-out: concentration of compound which inhibit 50% (IC50) of the growth of human tumor cell line
breast and lung cancers = details: United States, Europe, and Japan; cited from earlier work
HT-29 (colon carcinoma) = experiment: Tumor cell growth inhibition (SRB), 72 h; type: cell-based; details: Homo sapiens, read-out: concentration of compound which inhibit 50% (IC50) of the growth of human tumor cell line
[6] = test system: drug-resistant tumors, e.g., adriamycin-resistant breast cancer; details: cited from earlier work
A121 (ovarian carcinoma) = experiment: Tumor cell growth inhibition (SRB), 72 h; type: cell-based; details: Homo sapiens, read-out: concentration of compound which inhibit 50% (IC50) of the growth of human tumor cell line
[7] = test system: MCF7-R (mammary carcinoma cells 180-fold resistant to adriamycin); experiment: Tumor cell growth inhibition (SRB), 72 h; type: cell-based, human; details: for IC50: Homo sapiens, MCF7R, read-out: concentration of compound which inhibit 50% (IC50) of the growth of human tumor cell line
[8] = test system: human colon carcinoma cells HCT-116; details: cited from earlier work
[9] = MCF7 (breast), 72 h drug exposure, mean of at least three experiments
[10] = A549 (NSCLC), 72 h drug exposure, mean of at least three experiments
[11] = HT-29 (colon), 72 h drug exposure, mean of at least three experiments
[12] = A121 (ovarian), 72 h drug exposure, mean of at least three experiments

IC50 (MCF7 (mammary carcinoma); [9]) [nM] | IC50 [5, 10] [nM] | IC50 (HT-29 (colon carcinoma); [11]) [nM] | IC50 (A121 (ovarian carcinoma); [12]) [nM] | Structure (SMILES) | side effects in clinical trials [4] | activity against drug-resistant tumors [6] | IC50 (MCF7 (mammary carcinoma); MCF7, 72 h) [nM] | IC50 (HT-29 (colon carcinoma); HT-29, 72 h) [nM] | IC50 (A121 (ovarian carcinoma); A121, 72 h) [nM] | other results
– | – | – | – | CC(=O)O[C@@]12CO[C@@H]1C[C@H](O)[C@@]1(C)C(=O)[C@H](O)C3=C(C)[C@@H](OC(=O)[C@H](O)[C@H](C=Cc4ccccc4)NC(=O)OC(C)(C)C)C[C@@](O)([C@@H](OC(=O)c4ccccc4)[C@H]21)C3(C)C [3'-dephenyl-3'-(2-phenylethenyl)docetaxel] | – | – | – | – | – | decreased cytotoxicity ([1]; fold decrease): > 20 times
– | – | – | – | CC(=O)O[C@@]12CO[C@@H]1C[C@H](O)[C@@]1(C)C(=O)[C@H](O)C3=C(C)[C@@H](OC(=O)[C@H](O)[C@H](CC(C)(C)C)NC(=O)OC(C)(C)C)C[C@@](O)([C@@H](OC(=O)c4ccccc4)[C@H]21)C3(C)C [3'-dephenyl-3'-neopentyldocetaxel] | – | – | – | – | – | cytotoxicity ([1]; in words): virtually not cytotoxic
1 | 1 | 1.2 | 1.2 | CC(=O)O[C@@]12CO[C@@H]1C[C@H](O)[C@@]1(C)C(=O)[C@H](O)C3=C(C)[C@@H](OC(=O)[C@H](O)[C@@H](NC(=O)OC(C)(C)C)c4ccccc4)C[C@@](O)([C@@H](OC(=O)c4ccccc4)[C@H]21)C3(C)C [Docetaxel] | mouth sores and plunge in white blood cells | only a weak activity | – | – | – | bioavailability compared with paclitaxel [2]: better bioavailability; antitumor activity compared with paclitaxel [3]: superior to paclitaxel; activity in phase II and III clinical trials (breast and lung cancers): excellent activities, especially against breast and lung cancers
– | – | – | – | CC(=O)O[C@H]1C(=O)[C@@]2(C)[C@H]([C@H](OC(=O)c3ccccc3)[C@]3(O)C[C@H](OC(=O)[C@H](O)[C@@H](NC(=O)c4ccccc4)c4ccccc4)C(C)=C1C3(C)C)[C@]1(OC(C)=O)CO[C@@H]1C[C@@H]2O [Paclitaxel] | nerve damage, muscle pain or disturbances in heart rhythm | only a weak activity | 1.7 | 3.2 | 6.1 | IC50 ([7]; 72 h): 300 nM
– | – | – | – | CC(=O)O[C@H]1C(=O)[C@@]2(C)[C@H]([C@H](OC(=O)c3ccccc3)[C@]3(O)C[C@H](OC(=O)[C@H](O)[C@H](C=C(C)C)NC(=O)c4ccccc4)C(C)=C1C3(C)C)[C@]1(OC(C)=O)CO[C@@H]1C[C@@H]2O [RAH-1, 3'-dephenyl-3'-isobutenylpaclitaxel] | – | – | 0.54 | 0.96 | 1.4 | IC50 ([5]; A549, 72 h): 0.45 nM; times better activity than docetaxel ([8]; relative to docetaxel): 7 times; times better activity than paclitaxel ([8]; relative to paclitaxel): 4 times
0.51 | 0.54 | 0.76 | 0.9 | CC=C[C@H](NC(=O)OC(C)(C)C)[C@@H](O)C(=O)O[C@H]1C[C@@]2(O)[C@@H](OC(=O)c3ccccc3)[C@@H]3[C@]4(OC(C)=O)CO[C@@H]4C[C@H](O)[C@@]3(C)C(=O)[C@H](OC(C)=O)C(=C1C)C2(C)C [Taxoid Ia] | – | – | – | – | – | IC50 ([7]; MCF7-R, 72 h drug exposure, mean of at least three experiments): 14 nM; times better activity than docetaxel ([7]; MCF7-R, relative to docetaxel): 17 times; times better activity than paclitaxel ([7]; MCF7-R, relative to paclitaxel): 21 times; activity spectrum compared with paclitaxel and docetaxel ([1]; relative to paclitaxel and docetaxel): considerably better activity spectrum
